Data on four molecules can be found in patent publication US20100325754A1, “Compositions and methods for modulating oxidative burst in plant transformation” (Syngenta Participations AG, priority 2009, published 2010).

Series [1] deals with MicroTom tomato cotyledon explants. Briefly: Frequency of independent stable transgenic events and escapes in Agrobacterium-mediated MicroTom transformation (GUS staining).
Protocol: Sterilize MicroTom tomato seeds: (2.1 grams (g) of MicroTom tomato seeds, which equals approximately 900 seeds; supplied by Ball Horticultural Company, Chicago, Ill., USA. • add approximately 900 seeds to a sterile 250 milliliter (ml) flask • soak for 10 minutes (min) in the sterile 250 ml flask with ˜100 ml sterile double deionized (dd) water and then pour off the water. • add 100 ml of 70% ethanol to immerse the seeds for 1 min while stirring vigorously, pour off the ethanol, rinse the seeds 2 times with sterile dd water. • soak the seeds in 100 ml of 25% Chlorine bleach solution (chlorine bleach available under the registered trademark CLOROX®) with 3 drops of TWEEN™ 20 detergent for 10 min while stirring frequently, rinse the seeds three times with sterile dd water. • the seeds are germinated in MAGENTA™ box (available from bio-WORLD, Dublin, Ohio, United States of America) or culture box containing TGM medium (approximately 70 seeds/container), and the MAGENTA™ boxes are placed in a plastic box that is wiped down with 70% ethanol. The box cultures are placed in a dark incubator at 27° C. under the dark for 6 days (d). Seeds are distributed evenly and closely in the MAGENTA™ box, and pressed down on the media surface when placing the seeds on the germination medium.
Construct Information: The construct used in transformation contains a CaMV 35S promoter driving GUS (with GUS intron) and Nos promoter driving NPTII in Bin 19 binary vector (Frisch et al., 1995, Plant Molecular Biology 27:405-409). Agrobacterium tumefaciens strain EHA101 is used for transformation.
150 microliters (μl) of Vector 1 glycerol stock from −80° C. are placed on a fresh Luria Broth (LB)/rifampicin 50 microgram (μg)/ml/kanamycin 50 μg/ml plate on Friday of the week before transformation experiment, grown at about 28° C. for 3-4 d and stored in the refrigerator (4° C.) for the rest of the week. One day before inoculation, between 1:00 to 2:00 pm, a loopful of the bacterium cells from the freshly streaked plate is inoculated into 2 ml of liquid LB/rifampicin 50 μg/ml/kanamycin 50 μg/ml in a 17×100 Falcon tube, and grown at 28 C.° with 230 revolutions per minute (rpm) shaking. The next morning between 8:00 to 9:00 am, 0.2 ml of the overnight bacterium culture is inoculated into 2 ml of plain LB+0.2 millimeter (mM) acetosyringone in a 17×100 mm Falcon tube, and grown at about 28° C. with 230 rpm for 4 h.
Day 7 at about 2:00 pm. • 1) Cotyledon explants are isolated from seedlings 6 d after sowing seeds on TGM medium. • 2) About 25 cotyledon explants are prepared at a time by bathing them in a sterile petri dish plate containing 6 ml of Fillatti's suspension medium (FSM) liquid medium to prevent desiccation and trimming them at both ends using a #15 feather blade. Note: it is desirable to use the cotyledons that make a fairly tight “V” shape (two cotyledons that are at closed shape are acceptable to be used). • 3) Immediately after the trimming, the 25 cotyledon explants are gently placed on “feeder plates”—TCM medium. The “feeder plates” are made by overlaying 2 ml of tobacco suspension cells and a sterile WHATMAN™ filter (No. 1, Cat No. 1001090, VWR; Whatman Inc., Florham Park, N.J., United States of America) on the plates containing TCM medium. • 4) Cotyledon explants are gently poked with a sharp forceps and usually six pokes are made per explant. It is desirable that the sharp forceps gently touch the surface of explants and then make a slight movement on the touched surface in order to have a larger and shallower wounding surface that results in good transient expression. • 5) Right after poking, the cotyledons are inoculated with Agrobacterium by adding 3 ml of the Agrobacterium solution (OD600=0.1) suspended in FSM liquid medium to the top of cotyledons. The plates are incubated for 10 min at room temperature and the Agrobacterium solution is aspirated with a sterile pipette.
The next series concerns rice calli (Nipponbare). Briefly: Rice stable callus transformation efficiency. The series is classed as cell-based. The settings on record: co-cultivation and recovery media. Here is the method:
• 1. […] Check for any off-type seeds and discard these. • 2. Surface sterilize seeds in a 50 ml sterile tube with 70% ethanol for 1 to 2 min with shaking (ethanol treatment step is optional). • 3. Remove ethanol. • 4. Add 50% (v/v) CLOROX® bleach (2.4% Na hypochlorite) or 40% (v/v) ULTRA CLOROX® (˜3.2% Na hypochlorite) and one drop of TWEEN™-20 detergent, shake for 30-40 min on a shaker at 100-200 rpm. • 5. Remove CLOROX® solution and rinse with sterile water at least three times, until all sign of TWEEN™-20 detergent (soap bubbles) is gone. • 6. Seeds are ready to plate on sterile medium. • 7. Check for bacterial and fungal contaminations at 3 and 5 days later, respectively.
• 1. Soak sterilized seeds in sterile water for 1-2 d until fully imbibed (optional step) • 2. Plate pre-soaked or sterilized mature seeds onto rice callus induction medium (MS-CIM) at 12 seeds per plate. Culture in dark at 28° C. for 6 d prior to inoculation or for 4 weeks (wks) for production of embryogenic cultures. • 3. At 4 wks, selectively excise high quality target material and transfer to MS-CIM at 25 pieces per plate. Culture in dark for 8 d at 28° C. before inoculation.
• 1. If possible, choose bacteria from the area of the plate where there are many individual single colonies of bacteria growing for inoculation. Transfer ˜7 inoculation loops full of Agrobacterium culture to a 50 ml sterile plastic tube containing 20 ml liquid MS media with acetosyringone (As) added to 200 μM (add 1 μl As stock at 40 mg/ml per ml of suspension). Vortex to completely dissolve bacteria in liquid and bring volume to 50 ml. • 2. Measure the Agrobacterium suspension OD at 660 nm. Dilute the culture to an OD660 of 0.2-0.3 (higher concentrations can offer higher transformation frequencies but can cause damage/browning in some cultivars). Induce the bacteria with acetosyringone for at least 30 min. • 3. Inoculate cultured rice seeds or rice embryogenic culture responses by immersing target material in the bacterial suspension for 30 min. • 4. Try to make sure that all target pieces are completely immersed in the bacterial solution and shake regularly to ensure that this continues to be the case. • 5.
Transfer the inoculated seeds/cultures to multiple shoot-acetosyringone (MS-As) co-cultivation medium with sterile 85 mm filter paper. Each filter paper is wetted with 1 ml of MSInoc (see recipe below) liquid media with the concentrations of MT (in μM) listed below. Fifty (50) pieces per plate; incubate at 22° C. for 3 d. • A: Filter Paper • B: Filter Paper 2MT • C: Filter Paper 10MT • D: Filter Paper 100MT • E: Filter Paper 300MT • F: Filter Paper 1000MT
• 1. After ˜36 hours of co-cultivation, transfer the co-cultivated seeds/responses to Agrobacterium inhibition medium MS-400Tim (see recipe below) (1 plate→1 plate). Culture in the dark at 28° C. for ˜7 days. • 2. Score the scorable marker control plate for gene delivery efficiency at 4 to 5 days after co-cultivation • A: Recovery Media • B: Recovery Media+2MT • C: Recovery Media+10MT • D: Recovery Media+100MT • E: Recovery Media+300MT • F: Recovery Media+1000MT
• 1. Transfer calli to selection medium (17.5 g/l mannose/5 g/l sucrose). Culture in dark at ˜28° C. for 2 to 3 weeks, observing periodically for colony proliferation and contamination. • 2. Select mannose resistant embryogenic micro-colonies under microscope when proliferating colonies are big enough to grow independently, but not so big that they have begun to grow together. […]

In series [2] the test system is soybean immature seed explants. Nature of the series: Soybean transformation frequency (TAQMAN positive plants). The class given is cell-based, Soybean (Glycine max, Jack). As to conditions: transgenic plants after rooting.
Series [3] concerns MicroTom tomato cotyledons. Nature of the series: Tissue extreme browning of MicroTom tomato cotyledon explants after Agrobacterium inoculation. The settings on record: for Extreme Browning Rate: 3 days after selection. The series is classed as cell-based, Solanum lycopersicum (tomato). An excerpt: For tissue browning and transient expression data collection, 3 d after selection cotyledon explant data are collected for tissue browning under a dissecting microscope, and then for transient expression by GUS staining.

The mark [4] stands for this setting: epicatechin 50 mg/l, 6 weeks after selection.
Where [5] appears, read: epicatechin 100 mg/l, 6 weeks after selection.
The mark [6] stands for this setting: epicatechin 1000 mg/l, 6 weeks after selection.
The mark [7] stands for this setting: resveratrol 50 μM, 6 weeks after selection.
Setting [8] is: resveratrol 100 μM, 6 weeks after selection.
Where [9] appears, read: resveratrol 200 μM, 6 weeks after selection.
The mark [10] stands for this setting: N-t-butyl hydroxylamine 10 μM, 4 weeks after selection.
The mark [11] stands for this setting: N-t-butyl hydroxylamine 50 μM, 4 weeks after selection.
The mark [12] stands for this setting: N-t-butyl hydroxylamine 100 μM, 4 weeks after selection.

Regarding `Oc1cc(O)c2c(c1)O[C@H](c1ccc(O)c(O)c1)[C@H](O)C2` [Epicatechin, epicatechin], the Frequency of escapes in series [1] (setting [4]) came out at 1.7 ± 2.4%; in series [1] (setting [5]), 0.0 ± 0.0%; in series [1] (epicatechin 100 mg/l, 6 weeks after selection, listed as epicatechin) it was 0%; in series [1] (setting [6]), 1.7 ± 2.4%. The “Frequency of independent stable transgenic events” value is 418.3 ± 25.9 B % in series [1] (setting [4]), 521.7 ± 16.5 A % in series [1] (setting [5]) and 51.7 ± 2.4 D % in series [1] (setting [6]). Moreover, in series [1] (epicatechin 1000 mg/l), the “toxicity to plant tissues (inferred from reduced stable transformation frequency)” value is “might be toxic to plant tissues at that concentration”.

`Oc1ccc(C=Cc2cc(O)cc(O)c2)cc1` [Resveratrol, resveratrol]: the Frequency of escapes in series [1] (setting [7]) was 4.4 ± 7.7%; in series [1] (setting [8]), 1.1 ± 1.9%; in series [1] (setting [9]), 1.1 ± 1.9%. In addition, the “Frequency of independent stable transgenic events” value in series [1] (setting [7]) worked out at 297.8 ± 24.6 B %; in series [1] (setting [8]), 356.7 ± 10.0 A %; in series [1] (setting [9]), 227.8 ± 17.1 C %. In addition, in series [1] (resveratrol 100 μM), the “reduction of escapes compared with the negative control” value is on record as 5 fold.

On to `CC(C)(C)NO` [N-t-butyl hydroxylamine], for which, in series [1] (N-t-butyl hydroxylamine 10 μM), the “reduction of frequency of escapes compared with the negative control” value was determined as 2.5 fold. Also, the Frequency of escapes in series [1] (setting [10]) came to 4.4 ± 5.1%; in series [1] (setting [11]), 6.7 ± 3.3%; in series [1] (setting [12]), 8.9 ± 1.9%. The “Frequency of independent stable transgenic events” value in series [1] (setting [10]) came to 245.6 ± 44.0 A %; in series [1] (setting [11]), 222.2 ± 9.6 AB %; in series [1] (setting [12]), 205.6 ± 10.2 AB %.

As to `COc1ccc2[nH]cc(CCNC(C)=O)c2c1` [melatonin, N-Acetyl-5-methoxytryptamine], the “% of stable callus sectors” value in the series with rice calli (Nipponbare) (melatonin 2 μM in inoculation, transgenic callus after selection, 50 explants) was found to be 148.0%; with rice calli (Nipponbare) (melatonin 10 μM in inoculation, after selection) it was 156.0%; in the series on rice calli (Nipponbare) (melatonin 100 μM in inoculation, after selection), 140.0%; in the series on rice calli (Nipponbare) (melatonin 300 μM in inoculation, after selection), 140.0%; with rice calli (Nipponbare) (melatonin 1000 μM in inoculation, after selection), 86.0%. In addition, the Frequency of escapes in series [1] (melatonin 10 μM, 4 weeks after selection) came to 1.7 ± 0.0%; in series [1] (melatonin 50 μM, 4 weeks after selection), 0.0 ± 0.0%; in series [1] (melatonin 100 μM, 4 weeks after selection), 0.0 ± 0.0%. The “Frequency of independent stable transgenic events” value in series [1] (melatonin 10 μM, 4 weeks after selection, Table 5) was 214.4% ± 6.2 A; in series [1] (melatonin 50 μM, 4 weeks after selection, Table 5), 221.3% ± 47.7 A; in series [1] (melatonin 100 μM, 4 weeks after selection, Table 5), 229.4% ± 55.7 A; in series [1] (melatonin 100 μM, 4 weeks after selection, Table 6 (second set)), 213.3% ± 75.4 A; in series [1] (melatonin 500 μM, 4 weeks after selection, Table 6), 121.7% ± 1.7 B; in series [1] (melatonin 1000 μM, 4 weeks after selection, Table 6), 80.0% ± 14.1 B. Also, the “frequency of independent stable transgenic events, increased to” value in series [1] (melatonin at 10, 50 and 100 μM, from 88% in negative control without melatonin) amounted to 229%. Also, the Transformation frequency is recorded as 7.6% + in series [2] (melatonin 1 μM in infection and co-cultivation media, glyphosate selection); 7.5% + in series [2] (melatonin 10 μM in infection and co-cultivation media); 4.5% + in series [2] (melatonin 100 μM in infection and co-cultivation media). Also, the “Extreme Browning Rate” value in series [3] (10 μM melatonin in selection stage media, percentage of pokes with browning area ≧70%, Table 3) turned out to be 21.5%; in series [3] (50 μM melatonin in selection stage media, Table 3) it was 11.8%; in series [3] (100 μM melatonin in selection stage media, Table 3 (first set)), 6.4%; in series [3] (100 μM melatonin, Table 4 (second set)), 22.2%; in series [3] (500 μM melatonin, Table 4) it was 21.0%; in series [3] (1000 μM melatonin, Table 4) it was 50.6%. For the same molecule, the figures for the “tissue browning reduced, compared to the negative control” value in series [3] (10 μM melatonin in transformation media), in series [3] (50 μM melatonin in transformation media) and in series [3] (100 μM melatonin in transformation media) were 3.0 fold, 5.5 fold and 10.2 fold, respectively.
